Reference: patent publication US20050107386A1, “Methods of treating diseases and disorders by targeting multiple kinases” (priority 2003, published 2005)

Tests used:
Format in all cases: biochemical
Conditions in all cases: 3 μM; percent of control kinase activity
[1] = molecular target: FGFR3(h) (Homo sapiens, UniProt P22607); assay: FGFR3(h) kinase assay
Description: (§1) Six compounds (presumptive single agents) were tested against a panel of 50 kinases. The results are presented in Table 2; numbers for each kinase indicate the percent of control kinase activity in the presence of a 3μM concentration of the indicated agent.
(§2) Agents that target two or more different kinases are useful in the methods of the invention as described elsewhere herein. Such compounds may be identified, and their effect on certain kinases may be identified, using the assays briefly described below in Examples 4-83. Each of these assays was carried out as described in Davies et al., Biochem. J., 351:95-105 (2000). All assays were carried out at 10 μM ATP unless otherwise noted.
(§3) In a final reaction volume of 25 μl, FGFR3 (h) (5-10 mU) is incubated with 50 mM Tris pH 7.5, 0.1 mM EGTA, 0.1 mM NaVanadate, 0.1% β-mercaptoethanol, 0.1 mg/ml poly(Glu, Tyr) 4:1, 10 mM MnCl2, 10 mM MgAcetate and [γ-^33P-ATP] (specific activity approx. 500 cpm/pmol, concentration as required). The reaction is initiated by the addition of Mg^2+ [γ-^33P-ATP]. After incubation for 40 minutes at room temperature, the reaction is stopped by the addition of 5 μl of a 3% phosphoric acid solution. 10 μl of the reaction is then spotted onto a Filtermat A and washed three times for 5 minutes in 75 mM phosphoric acid and once in methanol prior to drying and scintillation counting.

[2] = molecular target: T1, CHK1(h) (Homo sapiens, UniProt O14757); assay: CHK1(h) kinase assay
T1 sequence (O14757 1-476): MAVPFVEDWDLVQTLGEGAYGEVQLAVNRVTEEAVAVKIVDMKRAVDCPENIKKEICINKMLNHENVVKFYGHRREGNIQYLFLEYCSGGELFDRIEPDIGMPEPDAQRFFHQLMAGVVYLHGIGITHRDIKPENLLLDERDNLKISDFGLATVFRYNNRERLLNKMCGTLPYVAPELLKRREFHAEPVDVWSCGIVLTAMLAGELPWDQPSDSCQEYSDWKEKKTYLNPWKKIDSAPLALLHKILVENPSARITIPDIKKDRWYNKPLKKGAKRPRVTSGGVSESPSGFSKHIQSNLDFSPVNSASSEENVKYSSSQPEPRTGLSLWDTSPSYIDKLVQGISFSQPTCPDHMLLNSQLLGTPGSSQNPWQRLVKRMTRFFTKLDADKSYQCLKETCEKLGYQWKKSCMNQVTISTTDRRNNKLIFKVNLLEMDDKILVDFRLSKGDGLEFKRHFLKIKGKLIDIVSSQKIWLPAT
Description: as §1, §2
as §3, with “μl, CHK1(h)” for “μl, FGFR3 (h)”, “with 8” for “with 50”, “mM MOPS” for “mM Tris”, “pH 7.0,0.2” for “pH 7.5, 0.1”, “mM EDTA, 200 μM […] (SEQ ID NO:5),” for “mM EGTA, 0.1 mM NaVanadate, 0.1% β-mercaptoethanol, 0.1 mg/ml poly(Glu, Tyr) 4:1, 10 mM MnCl2,”, “a P30 filtermat” for “a Filtermat A”

[3] = molecular target: T2, ZAP-70(h) (Homo sapiens, UniProt P43403); assay: ZAP-70(h) kinase assay
T2 sequence (P43403 1-619): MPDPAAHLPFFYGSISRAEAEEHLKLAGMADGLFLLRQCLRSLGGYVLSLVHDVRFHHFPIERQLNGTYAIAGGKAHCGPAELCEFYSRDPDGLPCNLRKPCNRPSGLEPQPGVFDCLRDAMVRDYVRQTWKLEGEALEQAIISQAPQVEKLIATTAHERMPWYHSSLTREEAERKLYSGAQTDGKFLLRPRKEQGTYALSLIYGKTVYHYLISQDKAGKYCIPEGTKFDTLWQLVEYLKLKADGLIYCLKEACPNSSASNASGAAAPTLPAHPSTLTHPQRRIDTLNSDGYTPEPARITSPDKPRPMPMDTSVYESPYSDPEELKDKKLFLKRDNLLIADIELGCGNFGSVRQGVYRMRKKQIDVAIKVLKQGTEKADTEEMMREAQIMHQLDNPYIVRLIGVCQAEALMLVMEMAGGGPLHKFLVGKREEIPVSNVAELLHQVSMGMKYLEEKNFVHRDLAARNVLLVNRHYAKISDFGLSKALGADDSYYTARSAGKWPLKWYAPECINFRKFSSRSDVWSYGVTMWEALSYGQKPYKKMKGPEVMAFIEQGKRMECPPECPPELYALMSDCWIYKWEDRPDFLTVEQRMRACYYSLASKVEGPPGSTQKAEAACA
Description: as §1, §2
as §3, with “ZAP-70” for “FGFR3”, “(Specific” for “(specific”

[4] = molecular target: CDK6/cyclinD3(h) (Homo sapiens, UniProt Q00534); assay: CDK6/cyclinD3(h) kinase assay
Description: as §1, §2
In a final reaction volume of 25 μl, CDK6/cyclinD3 (h) (5-10 mU) is incubated with 8 mM MOPS pH 7.0, 0.2 mM EDTA, 0.1 mg/ml histone H1, 10 mM MgAcetate and [γ-33p-ATP] (specific activity approx. 500 cpm/pmol, concentration as required). The reaction is initiated by the addition of Mg^2+ [γ-33P-ATP]. After incubation for 40 minutes at room temperature, the reaction is stopped by the addition of 5 μl of a 3% phosphoric acid solution. 10 μl of the reaction is then spotted onto a P30 filtermat and washed three times for 5 minutes in 75 mM phosphoric acid and once in methanol prior to drying and scintillation counting.

CDK6/cyclinD3(h), sequence (Q00534 whole entry): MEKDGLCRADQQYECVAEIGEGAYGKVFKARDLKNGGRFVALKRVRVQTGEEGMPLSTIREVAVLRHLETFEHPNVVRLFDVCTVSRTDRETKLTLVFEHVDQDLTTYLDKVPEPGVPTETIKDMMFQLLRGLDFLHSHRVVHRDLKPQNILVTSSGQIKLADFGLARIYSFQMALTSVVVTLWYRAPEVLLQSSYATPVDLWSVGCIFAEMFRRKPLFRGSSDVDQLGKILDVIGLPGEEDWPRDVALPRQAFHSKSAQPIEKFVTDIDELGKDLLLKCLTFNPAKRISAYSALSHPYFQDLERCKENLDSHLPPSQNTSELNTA
CDK6/cyclinD3(h), sequence (P30281 whole entry partner): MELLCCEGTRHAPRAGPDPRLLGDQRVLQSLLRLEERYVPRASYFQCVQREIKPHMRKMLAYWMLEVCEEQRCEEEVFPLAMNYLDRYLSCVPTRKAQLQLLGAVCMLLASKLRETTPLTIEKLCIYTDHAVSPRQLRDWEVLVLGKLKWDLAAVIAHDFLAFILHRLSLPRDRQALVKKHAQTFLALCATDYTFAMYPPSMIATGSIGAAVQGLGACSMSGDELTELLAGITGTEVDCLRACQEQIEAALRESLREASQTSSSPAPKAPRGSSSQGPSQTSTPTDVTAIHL
FGFR3(h), sequence (P22607 23-806): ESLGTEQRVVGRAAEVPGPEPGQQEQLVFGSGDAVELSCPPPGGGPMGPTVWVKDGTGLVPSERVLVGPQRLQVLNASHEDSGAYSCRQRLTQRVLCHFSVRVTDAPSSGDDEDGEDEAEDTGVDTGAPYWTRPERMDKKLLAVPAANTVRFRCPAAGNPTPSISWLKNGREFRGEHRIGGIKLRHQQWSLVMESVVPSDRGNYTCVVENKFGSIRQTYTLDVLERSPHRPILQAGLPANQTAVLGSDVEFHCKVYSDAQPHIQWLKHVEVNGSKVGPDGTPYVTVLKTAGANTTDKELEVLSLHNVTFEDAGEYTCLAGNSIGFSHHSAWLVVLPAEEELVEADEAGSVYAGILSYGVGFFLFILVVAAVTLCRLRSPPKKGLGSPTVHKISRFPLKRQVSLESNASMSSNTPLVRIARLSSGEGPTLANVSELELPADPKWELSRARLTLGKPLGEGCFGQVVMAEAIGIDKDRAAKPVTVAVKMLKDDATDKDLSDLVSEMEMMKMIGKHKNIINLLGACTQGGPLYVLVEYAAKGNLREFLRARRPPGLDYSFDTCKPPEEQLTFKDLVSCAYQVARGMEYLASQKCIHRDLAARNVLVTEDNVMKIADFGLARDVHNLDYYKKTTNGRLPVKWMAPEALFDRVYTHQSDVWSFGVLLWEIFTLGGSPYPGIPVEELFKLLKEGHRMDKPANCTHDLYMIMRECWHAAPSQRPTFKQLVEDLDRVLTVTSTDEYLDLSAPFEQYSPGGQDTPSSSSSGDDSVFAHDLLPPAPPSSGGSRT

Row | Inhibitory activity (% of control), FGFR3(h) [1] | Inhibitory activity (% of control), CHK1(h) [2] | Inhibitory activity (% of control), ZAP-70(h) [3] | Inhibitory activity (% of control), CDK6/cyclinD3(h) [4] | SMILES
1 | 5 % of control | 12 % of control | 40 % of control | 59 % of control | CC(C)Cc1nc(-c2ccc3[nH]nc(-c4ccc5cc(OCCN6CCCC6)ccc5c4)c3c2)n[nH]1 [CC002, 5-(5-Isobutyl-1H-[1,2,4]Triazol-3-yl)-3-[6-(2-Pyrrolidin-1-yl-Ethoxy)-Naphthalen-2-yl]-1H-Indazole]
2 | 77 % of control | 64 % of control | 68 % of control | 80 % of control | CC(C)(C)Cc1nc(-c2ccc3[nH]nc(-c4ccc5cc(OCc6ccccn6)ccc5c4)c3c2)n[nH]1 [CC004, 5-[5-(2,2-Dimethyl-propyl)-1H-[1,2,4]triazol-3-yl]-3-[6-(pyridine-2-ylmethoxy)-naphthalen-2-yl]-1H-indazole]
3 | 5 % of control | 6 % of control | 26 % of control | 29 % of control | CCN1CCC[C@H]1COc1ccc2cc(-c3n[nH]c4ccc(-c5nc(CC(C)(C)C)n[nH]5)cc34)ccc2c1 [CC005, 2-[((2s)-1-ethylpyrrolidin-2-yl)methoxy]-6-{5-[3-(2,2-Dimethylpropyl)(1H-1,2,4,-triazol-5-yl)](1H-indazol-3-yl)}naphthalene]
4 | 33 % of control | 70 % of control | 77 % of control | 63 % of control | Fc1ccc(-c2n[nH]c3ccc(-c4n[nH]c(C5CCCC5)n4)cc23)cc1 [CC006, 5-(5-Cyclopentyl-1H-[1,2,4]triazol-3-yl)-3-(4-fluoro-phenyl)-1H-indazole, reference compound]
5 | 54 % of control | 90 % of control | 87 % of control | 87 % of control | O=C(NC1CCCC1)c1cccc(-c2n[nH]c3ccc(-c4nc[nH]n4)cc23)c1 [CC007, 3-(5-(1H-1,2,4-triazol-3-yl)(1H-indazol-3-yl))phenyl-N-cyclopentylcarboxamide, reference compound]

Row | SMILES | Inhibitory activity (% of control), FGFR3(h) [1] | Inhibitory activity (% of control), CHK1(h) [2] | Inhibitory activity (% of control), ZAP-70(h) [3] | Inhibitory activity (% of control), CDK6/cyclinD3(h) [4]
6 | COc1ccc2cc(-c3n[nH]c4ccc(-c5n[nH]c(CN6CCOCC6)n5)cc34)ccc2c1 [CC001, 3-(6-Methoxynaphthalen-2-yl)-5-(5-Morpholin-4-Ylmethyl-1H-[1,2,4]Triazol-3-yl)-1H-Indazole] | 33 % of control | 36 % of control | 105 % of control | 82 % of control
